# According to ChEMBL document CHEMBL5154747, “Discovery of new carbonic anhydrase IX inhibitors as anticancer agents by toning the hydrophobic and hydrophilic rims of the active site to encounter the dual-tail approach” (Eur J Med Chem, 2022):
# Tests used:
# Format in all cases: functional
# [1] = test system: CCRF-CEM; assay: Anticancer activity against human CCRF-CEM cells assessed as cell growth inhibition incubated for 48 hrs by SRB assay
# [2] = test system: HL-60(TB); assay: Anticancer activity against human HL-60(TB) cells assessed as cell growth inhibition incubated for 48 hrs by SRB assay
# [3] = test system: K562; assay: Anticancer activity against human K562 cells assessed as cell growth inhibition incubated for 48 hrs by SRB assay
# [4] = test system: RPMI-8226; assay: Anticancer activity against human RPMI-8226 cells assessed as cell growth inhibition incubated for 48 hrs by SRB assay
# [5] = test system: EKVX; assay: Anticancer activity against human EKVX cells assessed as cell growth inhibition incubated for 48 hrs by SRB assay
# [6] = test system: HOP-62; assay: Anticancer activity against human HOP-62 cells assessed as cell growth inhibition incubated for 48 hrs by SRB assay
# [7] = test system: HOP-92; assay: Anticancer activity against human HOP-92 cells assessed as cell growth inhibition incubated for 48 hrs by SRB assay
# [8] = test system: NCI-H226; assay: Anticancer activity against human NCI-H226 cells assessed as cell growth inhibition incubated for 48 hrs by SRB assay
# [9] = test system: NCI-H460; assay: Anticancer activity against human NCI-H460 cells assessed as cell growth inhibition incubated for 48 hrs by SRB assay
# [10] = test system: NCI-H522; assay: Anticancer activity against human NCI-H522 cells assessed as cell growth inhibition incubated for 48 hrs by SRB assay
# [11] = test system: COLO 205; assay: Anticancer activity against human COLO 205 cells assessed as cell growth inhibition incubated for 48 hrs by SRB assay
# [12] = test system: HCC 2998; assay: Anticancer activity against human HCC 2998 cells assessed as cell growth inhibition incubated for 48 hrs by SRB assay
# [13] = test system: HCT-116; assay: Anticancer activity against human HCT-116 cells assessed as cell growth inhibition incubated for 48 hrs by SRB assay
# [14] = test system: KM12; assay: Anticancer activity against human KM12 cells assessed as cell growth inhibition incubated for 48 hrs by SRB assay
# [15] = test system: SF-268; assay: Anticancer activity against human SF-268 cells assessed as cell growth inhibition incubated for 48 hrs by SRB assay
# [16] = test system: SF-295; assay: Anticancer activity against human SF-295 cells assessed as cell growth inhibition incubated for 48 hrs by SRB assay
# [17] = test system: SF-539; assay: Anticancer activity against human SF-539 cells assessed as cell growth inhibition incubated for 48 hrs by SRB assay
# [18] = test system: SNB-19; assay: Anticancer activity against human SNB-19 cells assessed as cell growth inhibition incubated for 48 hrs by SRB assay
# [19] = test system: SNB-75; assay: Anticancer activity against human SNB-75 cells assessed as cell growth inhibition incubated for 48 hrs by SRB assay
# [20] = test system: U-251; assay: Anticancer activity against human U-251 cells assessed as cell growth inhibition incubated for 48 hrs by SRB assay
# [21] = test system: M14; assay: Anticancer activity against human M14 cells assessed as cell growth inhibition incubated for 48 hrs by SRB assay
# [22] = test system: MDA-MB-435; assay: Anticancer activity against human MDA-MB-435 cells assessed as cell growth inhibition incubated for 48 hrs by SRB assay
# [23] = test system: SK-MEL-28; assay: Anticancer activity against human SK-MEL-28 cells assessed as cell growth inhibition incubated for 48 hrs by SRB assay
# [24] = test system: UACC-257; assay: Anticancer activity against human UACC-257 cells assessed as cell growth inhibition incubated for 48 hrs by SRB assay
# [25] = test system: UACC-62; assay: Anticancer activity against human UACC-62 cells assessed as cell growth inhibition incubated for 48 hrs by SRB assay
# [26] = test system: OVCAR-3; assay: Anticancer activity against human OVCAR-3 cells assessed as cell growth inhibition incubated for 48 hrs by SRB assay
# [27] = test system: OVCAR-5; assay: Anticancer activity against human OVCAR-5 cells assessed as cell growth inhibition incubated for 48 hrs by SRB assay
# [28] = test system: NCI/ADR-RES; assay: Anticancer activity against human NCI/ADR-RES cells assessed as cell growth inhibition incubated for 48 hrs by SRB assay
# [29] = test system: SK-OV-3; assay: Anticancer activity against human SK-OV-3 cells assessed as cell growth inhibition incubated for 48 hrs by SRB assay
# [30] = test system: ACHN; assay: Anticancer activity against human ACHN cells assessed as cell growth inhibition incubated for 48 hrs by SRB assay
# [31] = test system: CAKI-1; assay: Anticancer activity against human CAKI-1 cells assessed as cell growth inhibition incubated for 48 hrs by SRB assay
# [32] = test system: SN12C; assay: Anticancer activity against human SN12C cells assessed as cell growth inhibition incubated for 48 hrs by SRB assay
# [33] = test system: UO-31; assay: Anticancer activity against human UO-31 cells assessed as cell growth inhibition incubated for 48 hrs by SRB assay
# [34] = test system: PC-3; assay: Anticancer activity against human PC-3 cells assessed as cell growth inhibition incubated for 48 hrs by SRB assay
# [35] = test system: MCF7; assay: Anticancer activity against human MCF7 cells assessed as cell growth inhibition incubated for 48 hrs by SRB assay
# [36] = test system: Hs-578T; assay: Anticancer activity against human Hs-578T cells assessed as cell growth inhibition incubated for 48 hrs by SRB assay
# [37] = test system: BT-549; assay: Anticancer activity against human BT-549 cells assessed as cell growth inhibition incubated for 48 hrs by SRB assay
# [38] = test system: T47D; assay: Anticancer activity against human T47D cells assessed as cell growth inhibition incubated for 48 hrs by SRB assay
# [39] = test system: MDA-MB-468; assay: Anticancer activity against human MDA-MB-468 cells assessed as cell growth inhibition incubated for 48 hrs by SRB assay
# [40] = read-out: LC50 (the source's name)
smiles,measurement,setting,value
NS(=O)(=O)c1ccc(Nc2nc(N/N=C/c3ccccn3)nc(Nc3ccccc3)n2)cc1,GI50,[1],310 nM
same,CC50,[1]; [40],> 100000 nM
same,GI50,[2],630 nM
same,CC50,[2]; [40],> 100000 nM
same,GI50,[3],400 nM
same,CC50,[3]; [40],> 100000 nM
same,GI50,[4],2110 nM
same,LC50 (concentration killing 50% of cells),[4],> 100000 nM
same,GI50,[5],710 nM
same,CC50,[5]; [40],> 100000 nM
same,GI50,[6],550 nM
same,CC50,[6]; [40],> 100000 nM
same,GI50,[7],800 nM
same,CC50,[7]; [40],> 100000 nM
same,GI50,[8],1070 nM
same,CC50,[8]; [40],> 100000 nM
same,GI50,[9],2410 nM
same,CC50,[9]; [40],> 100000 nM
same,GI50,[10],450 nM
same,CC50,[10]; [40],> 100000 nM
same,GI50,[11],410 nM
same,CC50,[11]; [40],> 100000 nM
same,GI50,[12],650 nM
same,CC50,[12]; [40],> 100000 nM
same,GI50,[13],390 nM
same,LC50 (concentration killing 50% of cells),[13],> 100000 nM
same,GI50,[14],2140 nM
same,CC50,[14]; [40],> 100000 nM
same,GI50,[15],460 nM
same,LC50 (concentration killing 50% of cells),[15],> 100000 nM
same,GI50,[16],1400 nM
same,CC50,[16]; [40],> 100000 nM
same,GI50,[17],680 nM
same,CC50,[17]; [40],8000 nM
same,GI50,[18],850 nM
same,CC50,[18]; [40],> 100000 nM
same,GI50,[19],1320 nM
same,LC50 (concentration killing 50% of cells),[19],5710 nM
same,GI50,[20],510 nM
same,CC50,[20]; [40],> 100000 nM
same,GI50,[21],850 nM
same,GI50,[22],910 nM
same,LC50,[22],5930 nM
same,GI50,[23],750 nM
same,CC50,[23]; [40],6190 nM
same,GI50,[24],2140 nM
same,LC50,[24],> 100000 nM
same,GI50,[25],570 nM
same,LC50,[25],6150 nM
same,GI50,[26],460 nM
same,LC50 (concentration killing 50% of cells),[26],> 100000 nM
same,GI50,[27],1600 nM
same,CC50,[27]; [40],> 100000 nM
same,GI50,[28],2750 nM
same,CC50,[28]; [40],> 100000 nM
same,GI50,[29],840 nM
same,LC50,[29],> 100000 nM
same,GI50,[30],1120 nM
same,GI50,[31],610 nM
same,CC50,[31]; [40],> 100000 nM
same,GI50,[32],1010 nM
same,LC50,[32],> 100000 nM
same,GI50,[33],1500 nM
same,CC50,[33]; [40],89500 nM
same,GI50,[34],690 nM
same,CC50,[34]; [40],> 100000 nM
same,GI50,[35],1100 nM
same,LC50,[35],6800 nM
same,GI50,[36],1880 nM
same,LC50 (concentration killing 50% of cells),[36],> 100000 nM
same,GI50,[37],890 nM
same,CC50,[37]; [40],> 100000 nM
same,GI50,[38],470 nM
same,LC50,[38],> 100000 nM
same,GI50,[39],310 nM
same,CC50,[39]; [40],> 100000 nM
